In patent US9474777B2, “Plant extract and the process for treating hepatic fibrosis and liver cancer” (Development Center for Biotechnology, priority 2013, dated 2016):

Assays:
[1] = system: diethylnitrosamine (DEN)-induced liver fibrosis and liver cancer; experiment: DEN-induced liver fibrosis and liver cancer model; format: in vivo, Wistar rats
Text: Specifically, five-to-six weeks old Wistar rats were obtained from the animal center at the National Taiwan University Medical School. The rats were given 100 ppm DEN drinking water, and they were weighed weekly at feeding times. […] The feeding of DEN was continued for 9 weeks, which is sufficient to induce the occurrence of liver cirrhosis and liver cancer. Liver cancers were removed from the rats for cancer recurrence study.

[2] = system: recurrence of liver cirrhosis and liver cancers after removal of DEN-induced tumor; experiment: Recurrence model after removal of DEN-induced tumor; format: in vivo, Wistar rats; conditions: pirfenidone 200 mg/kg/day
Experimental: Specifically, five-to-six weeks old Wistar rats were obtained from the animal center at the National Taiwan University Medical School. The rats were given 100 ppm DEN drinking water, and they were weighed weekly at feeding times. […] The feeding of DEN was continued for 9 weeks, which is sufficient to induce the occurrence of liver cirrhosis and liver cancer. Liver cancers were removed from the rats for cancer recurrence study. The test samples (GP-T) were tested at two different concentrations and administered to the rats for four weeks (from the ninth to the thirteenth week). Pirfenidone was used as a positive control. In the tests, each group included 6-8 rats. The tests were conducted using the rat model and different concentrations of the GP test samples in the food to assess their effects on liver fibrosis and liver cancer recurrence. Male five-to-six weeks old Wistar rats were obtained from the animal center at the National Taiwan University Medical School. The rats were fed drinking water containing 100 ppm carcinogen, diethylnitrosamine (DEN). During the feeding period, the rats were weighed weekly. The concentrations of DEN were increased according to the body weight increases. After continuous feeding for 9 weeks, DEN was sufficient to induce liver cirrhosis and liver cancer in rats. The liver cancers were removed by surgery after the 9 week period. Then, the rats were treated with two different doses of the test drugs (GP-T) for four weeks (from the ninth week to the thirteenth week). Some rats were given pirfenidone as positive control. In this experiments, each group has n=6-8 rats. This experiment uses a rat model, coupled with feeding the rats with different doses of the test drugs, to evaluate the impacts of the test drugs on the recurrence of liver cirrhosis and liver cancers.

SMILES	Survival Rate ([1]; sorafenib 30 mg/kg, 6 weeks, DEN rats)	number of activated astrocytes (α-SMA staining) ([1]; sorafenib group (S), 30 mg/kg)	prophylactic effect on the recurrence of carcinogenesis after tumor removal [2]	hydroxyproline content in liver ([2]; FIG. 14D)	carcinogenesis presented by GST-p(+) density ([2]; four weeks after tumor ablation)
CNC(=O)c1cc(Oc2ccc(NC(=O)Nc3ccc(Cl)c(C(F)(F)F)c3)cc2)ccn1 [Sorafenib]	100%	significantly reduced number of activated astrocytes			
Cc1ccc(=O)n(-c2ccccc2)c1 [pirfenidone]			no prophylactic effect	decreased significantly	decreased
